The source of these data is ChEMBL document CHEMBL5154848, “Synthesis of heterocyclic ring-fused analogs of HMG499 as novel degraders of HMG-CoA reductase that lower cholesterol” (Eur J Med Chem, 2022).

The source made the active and inactive calls. The rule behind the calls is not given here.

The target in series [1] is T1, 3-hydroxy-3-methylglutaryl-coenzyme A reductase (Homo sapiens) (UniProt P04035).
T1 sequence (whole entry): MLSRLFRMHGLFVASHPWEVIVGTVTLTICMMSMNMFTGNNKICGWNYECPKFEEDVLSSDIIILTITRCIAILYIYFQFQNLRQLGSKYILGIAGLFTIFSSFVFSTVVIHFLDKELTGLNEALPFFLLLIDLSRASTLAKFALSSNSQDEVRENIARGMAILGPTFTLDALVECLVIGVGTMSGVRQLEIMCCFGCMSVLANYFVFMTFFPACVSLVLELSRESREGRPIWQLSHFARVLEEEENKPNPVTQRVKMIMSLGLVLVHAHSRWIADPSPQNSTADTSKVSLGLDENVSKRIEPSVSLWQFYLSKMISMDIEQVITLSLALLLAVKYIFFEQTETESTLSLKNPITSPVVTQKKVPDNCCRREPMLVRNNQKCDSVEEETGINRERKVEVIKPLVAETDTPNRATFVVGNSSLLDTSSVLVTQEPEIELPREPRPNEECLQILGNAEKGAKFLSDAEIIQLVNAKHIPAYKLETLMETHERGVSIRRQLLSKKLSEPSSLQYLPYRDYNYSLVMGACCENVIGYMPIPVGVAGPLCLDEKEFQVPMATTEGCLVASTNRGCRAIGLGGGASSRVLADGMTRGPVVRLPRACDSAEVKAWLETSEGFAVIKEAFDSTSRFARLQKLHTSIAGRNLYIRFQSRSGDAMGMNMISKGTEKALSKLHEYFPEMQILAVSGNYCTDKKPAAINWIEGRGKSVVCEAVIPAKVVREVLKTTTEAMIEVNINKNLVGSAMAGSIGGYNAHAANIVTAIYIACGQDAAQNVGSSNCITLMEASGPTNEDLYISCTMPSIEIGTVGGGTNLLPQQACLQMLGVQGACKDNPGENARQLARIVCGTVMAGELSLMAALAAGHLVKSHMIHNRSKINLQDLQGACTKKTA
The series is described as follows: Induction of HMGCR-T7 (unknown origin) degradation transfected in CHO-K1 cells assessed as HMGCR ubiquitination preincubated in sterol-depleted medium for 16 hrs followed by compound addition and measured after 4 hrs in presence of MG-132 by immuno-precipicitation analysis. The format is cell-based. The settings on record: DDE = dose-dependent effect.

Series [2] concerns LX-2. The series is described as follows: Downregulation of TGF-beta-1-induced alpha-SMA mRNA levels in serum starved human LX2 cells pretreated with TGF-beta-1 for 6 hrs followed by compound treatment for 24 hrs by SYBR green dye based qRT-PCR analysis. The format is functional, cell-based. As to conditions: dose <= 2.0 µM, DDE = dose-dependent effect. (In qPCR the cycle at which signal appears reflects the starting amount.)

The subject of series [3] is LX-2. Put plainly: Downregulation of TGF-beta-1-induced COL1A1 mRNA levels in serum starved human LX2 cells pretreated with TGF-beta-1 for 6 hrs followed by compound treatment for 24 hrs by SYBR green dye based qRT-PCR analysis. Type of series: functional, cell-based. The settings on record: dose <= 2.0 µM, DDE = dose-dependent effect.
Series [4] can be described thus: Toxicity in human SV589 cells assessed as cholesterol accumulation in lysosome at 10 uM incubated for 16 hrs by immunofluorescence based confocal microscopy. Type of series: cell-based. The settings on record: sv-589, 16 h.
The test system of series [5] is RAW264.7. The series is described as follows: Downregulation of LPS-stimulated IL-1-beta mRNA levels in mouse RAW264.7 cells pretreated with LPS for 2 hrs followed by compound treatment for 24 hrs by SYBR green dye based qRT-PCR analysis. Type of series: functional, cell-based. As to conditions: dose <= 2.0 µM, DDE = dose-dependent effect.
Series [6] has as its system RAW264.7. The series is described as follows: Downregulation of LPS-stimulated IL-6 mRNA levels in mouse RAW264.7 cells pretreated with LPS for 2 hrs followed by compound treatment for 24 hrs by SYBR green dye based qRT-PCR analysis. Type of series: functional, cell-based. As to conditions: dose <= 2.0 µM, DDE = dose-dependent effect.
The target of series [7] is T2, 3-hydroxy-3-methylglutaryl-coenzyme A reductase (Cricetulus griseus) (UniProt P00347).
T2 sequence (whole entry): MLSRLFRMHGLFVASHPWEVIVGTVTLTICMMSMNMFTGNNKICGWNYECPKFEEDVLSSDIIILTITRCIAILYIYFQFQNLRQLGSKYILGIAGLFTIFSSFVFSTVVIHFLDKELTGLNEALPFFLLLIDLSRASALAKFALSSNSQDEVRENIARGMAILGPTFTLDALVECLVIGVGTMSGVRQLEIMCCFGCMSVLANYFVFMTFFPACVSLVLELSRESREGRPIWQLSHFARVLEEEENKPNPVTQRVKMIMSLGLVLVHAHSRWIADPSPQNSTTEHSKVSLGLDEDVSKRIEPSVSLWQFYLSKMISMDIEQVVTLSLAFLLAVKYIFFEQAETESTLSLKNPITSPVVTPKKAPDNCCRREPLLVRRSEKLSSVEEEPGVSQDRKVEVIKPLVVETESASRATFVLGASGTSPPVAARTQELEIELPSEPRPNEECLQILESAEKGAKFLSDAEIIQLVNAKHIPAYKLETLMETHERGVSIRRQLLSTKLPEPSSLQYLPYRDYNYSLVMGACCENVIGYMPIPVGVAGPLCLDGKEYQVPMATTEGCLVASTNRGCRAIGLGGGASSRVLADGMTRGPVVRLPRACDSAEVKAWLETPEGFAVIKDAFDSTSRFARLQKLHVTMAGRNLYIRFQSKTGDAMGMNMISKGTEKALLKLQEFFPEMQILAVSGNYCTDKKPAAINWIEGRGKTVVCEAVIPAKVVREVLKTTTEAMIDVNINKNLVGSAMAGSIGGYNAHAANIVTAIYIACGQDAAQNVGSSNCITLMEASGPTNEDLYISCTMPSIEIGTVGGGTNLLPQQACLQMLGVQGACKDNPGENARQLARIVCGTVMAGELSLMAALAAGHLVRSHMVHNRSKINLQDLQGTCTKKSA
The series is described as follows: Induction of degradation of wild type HMGCR in CHO-K1 cells by immunoblot analysis. The settings on record: DDE = dose-dependent effect. The format is cell-based. Background: Immunoblotting shows a protein as a band on a membrane.

The subject of a further series is CHO-7. Put plainly: Growth inhibition of CHO-7 cells at 0.3 to 10 uM cultured for 7 days in sterol depleted medium in the absence of cholesterol and measured on day 8 by crystal violet staining based microscopic analysis. The format is functional, cell-based. The settings on record: Cricetulus griseus, dose 0.3-10 µM, time 8.0 day.
Series [8] deals with LX-2. Put plainly: Downregulation of TGF-beta-1-induced alpha-SMA protein level in serum starved human LX2 cells pretreated with TGF-beta-1 for 6 hrs followed by compound treatment for 24 hrs by Western blot analysis. Type of series: functional, cell-based. The settings on record: DDE = dose-dependent effect.
Series [9] deals with RAW264.7. Put plainly: Downregulation of LPS-stimulated cholesterol levels in mouse RAW264.7 cells pretreated with LPS for 2 hrs followed by compound treatment for 24 hrs. As to conditions: dose <= 2.0 µM, DDE = dose-dependent effect. The format is functional, cell-based.
Series [10] concerns the target T3, 3-hydroxy-3-methylglutaryl-coenzyme A reductase (Cricetulus griseus, UniProt P00347).
T3 sequence (P00347 whole entry): T2 sequence (whole entry)
The series is described as follows: Induction of degradation of hamster HMGCR (TM1-8)-GFP (1 to 346 residues) transfected in CHO-7 cells incubated for 16 hrs in sterol-depleted medium by fluorescence based microplate reader assay. Type of series: cell-based.

Series [11] in a line: Downregulation of HMGCR expression in CHO-K1 cells assessed as fold change in HMGCR expression at 1 uM incubated for 16 hrs by immunoblot analysis (reference value: 1.0). The format is functional, Cricetulus griseus.
Series [12] is described as follows: Downregulation of lovastatin-induced HMGCR expression in CHO-K1 cells assessed as fold change in HMGCR expression at 1 uM incubated for 16 hrs by immunoblot analysis (reference value: 15.2). Type of series: functional, Cricetulus griseus.
Series [13] has as its system LX-2. The series is described as follows: Downregulation of TGF-beta-1-induced TGF-beta-1 mRNA levels in serum starved human LX2 cells pretreated with TGF-beta-1 for 6 hrs followed by compound treatment for 24 hrs by SYBR green dye based qRT-PCR analysis. As to conditions: dose <= 2.0 µM, DDE = dose-dependent effect. Type of series: functional, cell-based.

Broadly, the EC50 is the concentration giving half of the maximal effect. Low values mean an effect from little substance, high ones a need for much substance. Consider `CC(=O)n1ncc2c1C(C)(C)C1=CC[C@H]3[C@@H]4CC[C@H]([C@H](C)CCC(=O)N5CCOCC5)[C@@]4(C)CC[C@@H]3[C@@]1(C)C2`, for which the Activity result in series [1] was “Dde”; in the series with LX-2 [2] it was “Dde”; in the series on LX-2 [3], “Dde”; in series [4], “Non-Toxic”; with RAW264.7 [5] it was “Dde”; in the series with RAW264.7 [6] it was “Dde”. The Activity result (in series [7]; with LX-2 [8]; in the series with RAW264.7 [9]; in the series with LX-2 [13]) was “Dde” each time. Further, the inhibition result in the series on CHO-7 is “Active”. The compound also showed an EC50 in series [10] of 220 nM. Besides, the “fold change (FC)” value is on record as 0.3 in series [11] and 2.4 in series [12].
